A value given as a limit tells only on which side of the number the result lay.

T1 sequence (P00746 26-253): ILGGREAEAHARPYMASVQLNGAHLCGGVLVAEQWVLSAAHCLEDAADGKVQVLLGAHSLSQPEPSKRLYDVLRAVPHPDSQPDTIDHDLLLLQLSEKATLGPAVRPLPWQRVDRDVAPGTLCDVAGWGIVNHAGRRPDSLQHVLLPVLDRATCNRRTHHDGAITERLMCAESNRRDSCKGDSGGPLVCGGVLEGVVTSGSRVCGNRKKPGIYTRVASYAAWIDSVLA

One assay concerns the target T1, Human factor D (Homo sapiens, UniProt P00746).
T1 construct: purified from human serum; purchased Complement Technology, Inc; host or cells: human serum
The experiment in a line: Human Factor D Assay.
Settings: not given
The assay is classed as biochemical. As for the experimental part: Other standard factor D inhibition assays are also available.
Human factor D (purified from human serum, Complement Technology, Inc.) at 80 nM final concentration is incubated with test compound at various concentrations for 5 minutes at room temperature in 50 mM Tris, 1M NaCl, pH 7.5. A synthetic substrate Z-L-Lys-SBzl and DTNB (Ellman's reagent) are added to final concentrations of 100 μM each. The increase in color is recorded at OD405 nm in a microplate in kinetic mode over 30 minutes with 30 second time points in a spectrofluorimeter. IC50 values are calculated by non-linear regression from the percentage of inhibition of complement factor D activity as a function of test compound concentration.
One may read the IC50 as the concentration at which inhibition is half-maximal. For the compound `CC(=O)c1cn(CC(=O)N2C[C@H](F)C[C@H]2C(=O)Nc2cccc(-c3ccccc3Cl)c2F)c2ccc(C3=CCN(C(C)=O)CC3)cc12` [Compound 28, (2S,4R)-1-(2-(3-acetyl-5-(1-acetyl-1,2,3,6-tetrahydropyridin-4-yl)-1H-indol-1-yl)acetyl)-N-(2′-chloro-2-fluorobiphenyl-3-yl)-4-fluoropyrrolidine-2-carboxamide], the IC50 is below 1 µM.
The compound `NC(=O)c1nn(CC(=O)N2C[C@H](F)C[C@H]2C(=O)N[C@@H]2CCC[C@@H]2OCc2ccccc2)c2ccc(-c3ccnnc3)cc12` [Compound 51, 1-(2-((2S,4R)-2-((1R,2S)-2-(benzyloxy)cyclopentylcarbamoyl)-4-fluoropyrrolidin-1-yl)-2-oxoethyl)-5-(pyridazin-4-yl)-1H-indazole-3-carboxamide] came in with a half-maximal inhibitory concentration (IC50) above 10 µM.

Staying with this assay, now noted: human factor D 80 nM, substrate Z-L-Lys-SBzl, assay of Example 7; read-out: IC50.
As for `COc1ncc(-c2ccc3c(c2)c(C(N)=O)nn3CC(=O)N2C[C@H](F)C[C@H]2C(=O)Nc2cccc(-c3ccccc3Cl)c2F)cn1` [Compound 29, 1-(2-((2S,4R)-2-(2′-chloro-2-fluorobiphenyl-3-ylcarbamoyl)-4-fluoropyrrolidin-1-yl)-2-oxoethyl)-5-(2-methoxypyrimidin-5-yl)-1H-indazole-3-carboxamide], the 50% inhibitory concentration (IC50) is below 1 µM.
On the same count and under the same terms, the result for `NC(=O)c1nn(CC(=O)N2C[C@H](F)C[C@H]2C(=O)Nc2ccccc2-c2nc3ccccc3s2)c2ccc(-c3ccnnc3)cc12` [Compound 41, 1-(2-((2S,4R)-2-(2-(benzo[d]thiazol-2-yl)phenylcarbamoyl)-4-fluoropyrrolidin-1-yl)-2-oxoethyl)-5-(pyridazin-4-yl)-1H-indazole-3-carboxamide] reads above 10 µM; that for `CC(=O)c1cn(CC(=O)N2[C@@H]3C[C@@H]3C[C@H]2C(=O)Nc2cccc(Br)n2)c2ccc(-c3cnc(C)nc3)cc12` [Compound 132, (1R,3S,5R)-2-(2-(3-acetyl-5-(2-methylpyrimidin-5-yl)-1H-indol-1-yl)acetyl)-N-(6-bromopyridin-2-yl)-2-azabicyclo[3.1.0]hexane-3-carboxamide], below 1 µM.
For the compound `Cc1nc2sccn2c1-c1csc(NC(=O)[C@@H]2C[C@@H](F)CN2C(=O)Cn2nc(C(N)=O)c3cc(-c4ccnnc4)ccc32)n1` [Compound 58, 1-(2-((2S,4R)-4-fluoro-2-(4-(6-methylimidazo[2,1-b]thiazol-5-yl)thiazol-2-ylcarbamoyl)pyrrolidin-1-yl)-2-oxoethyl)-5-(pyridazin-4-yl)-1H-indazole-3-carboxamide], the IC50 was above 10 µM.

The values above are taken from US20160362399A1, “ARYL, HETEROARYL, AND HETEROCYCLIC COMPOUNDS FOR TREATMENT OF COMPLEMENT MEDIATED DISORDERS” (Achillion Pharmaceuticals, Inc., priority 2014, published 2016).
